Each compound was assayed on mitochondria obtained from hepatocytes (assay: Inhibitory activity on calcium-induced mitochondrial swelling (absorbance 520 nm)). Settings: Hepatocyte; calcium-induced swelling of extracted mitochondria; read-out: Test Example 4: inhibiting mitochondrial swelling (IC50).
Excerpt: Cyclophilin is a key protein for forming permeability transition pores (PTP) in mitochondria. When permeability transition pores are formed, mitochondria swell, whereby the outer membrane thereof ruptures and thus cell death progresses. Such mitochondrial dysfunction causes many diseases including neurodegenerative diseases, cancer, and the like. Cyclosporine, a known cyclophilin inhibitor, is capable of preventing the formation of permeability transition pores to thus suppress mitochondrial swelling.
The mitochondrial swelling test was performed as follows. Specifically, the hepatocytes were disrupted using a Dounce tissue grinder. The disrupted cells were centrifuged at 700×g for 10 min and the supernatant was transferred into a new tube. The supernatant was centrifuged at 12,000×g for 15 min, thereby obtaining mitochondria.
When the extracted mitochondria were added with calcium, they swelled, which may be observed by measuring the absorbance at 520 nm. The stilbene derivatives are effective at inhibiting mitochondrial swelling due to calcium.
The activity of Compounds 1 to 155 of Tables 1 to 10 on inhibiting mitochondrial swelling may be determined based on IC50 values, and may be grouped as follows: […]

SMILES | IC50
COC(=O)c1ccccc1C=Cc1ccc(CC(C)C)cc1 [Compound 129] | 5 to 50 µM
CCCCCc1ccc(C=Cc2ccccc2C(=O)OC)cc1 [Compound 130] | < 5 µM
CCOc1ccc(C(C#N)=Cc2ccccc2OC)cc1 [Compound 16] | 50 to 500 µM
CC(C)OC(=O)c1ccccc1C=C(N)c1ccc(CC(C)(C)C)cc1 [Compound 104] | 5 to 50 µM
N#CC(=Cc1ccccc1CCc1ccccc1)c1ccc([N+](=O)[O-])cc1 [Compound 38] | 5 to 50 µM
CCCCOC(=O)c1ccccc1C=C(Br)c1ccc(CC(C)(C)C)cc1C [Compound 114] | < 5 µM
N#CC(=Cc1ccccc1CCc1cccc(Cl)c1)c1ccc([N+](=O)[O-])cc1 [Compound 47] | 5 to 50 µM
CC(C)c1ccc(C(C#N)=Cc2ccccc2Cl)cc1 [Compound 4] | 50 to 500 µM
CC(C)OC(=O)c1ccccc1C=Cc1ccc(CC(C)(C)C)cc1 [Compound 73] | < 5 µM
CCCCOC(=O)c1ccccc1C=C(N)c1ccc(CC2CCCC2)cc1 [Compound 109] | 5 to 50 µM
CCCOC(=O)c1ccccc1C=C(C)c1ccc(CC(C)(C)C)cc1 [Compound 87] | 5 to 50 µM
CC(C)(C)CCc1ccccc1C=C(C#N)c1ccc([N+](=O)[O-])cc1 [Compound 43] | 5 to 50 µM
CCCCOC(=O)c1cc(C)ccc1C=Cc1ccc(CC(C)(C)C)cc1 [Compound 69] | 5 to 50 µM
COc1ccccc1C=C(C#N)c1ccc(C(=O)C(C)(C)C)cc1 [Compound 14] | 5 to 50 µM
N#CC(=Cc1ccccc1CC1CCCCC1)c1ccc([N+](=O)[O-])cc1 [Compound 41] | < 5 µM
CN(C)CCOc1ccccc1C=C(C#N)c1ccc([N+](=O)[O-])cc1 [Compound 28] | 50 to 500 µM
N#CC(=Cc1ccccc1N1CCCCC1)c1ccc([N+](=O)[O-])cc1 [Compound 29] | 50 to 500 µM
CC(C)(C)Cc1ccc(C=Cc2ccccc2C(=O)OCC2CCCCC2)cc1 [Compound 74] | < 5 µM
CCCCOC(=O)c1ccccc1C=C(N)c1ccc(CC(C)(C)C)cc1 [Compound 98] | 5 to 50 µM
CC(C)(C)Cc1ccc(C=Cc2ccccc2C(=O)OCc2ccccc2)cc1 [Compound 76] | < 5 µM

Same assay, conditions: Hepatocyte; read-out: Test Example 4: activity on inhibiting mitochondrial swelling (IC50) group

SMILES | IC50
CC(C)(C)Cc1ccc(C=Cc2cc(N)ccc2C(=O)O)cc1 [Compound 154] | 5 to 50 µM
Cc1ccc(C(=O)O)c(C=Cc2ccc(CC(C)(C)C)cc2)c1 [Compound 155] | 5 to 50 µM
Cc1cccc(C(=O)O)c1C=Cc1ccc(CC(C)(C)C)cc1 [Compound 152] | < 5 µM
CCCCOC(=O)c1cccc(C(=O)OCCCC)c1C=Cc1ccc(CC(C)(C)C)cc1 [Compound 149] | 5 to 50 µM
CCCCOC(=O)c1ccncc1C=Cc1ccc(CC(C)(C)C)cc1 [Compound 147] | 5 to 50 µM

Each compound was assayed against cyclophilin (assay: Cis-trans isomerase inhibitory activity (chymotrypsin-coupled Suc-AAPF-pNA cleavage, absorbance 390 nm)). Settings: cyclophilin, chymotrypsin, Suc-AAPF-pNA; read-out: Test Example 1: cis-trans isomerase inhibitory activity (IC50).
Assay type: biochemical
Excerpt: Chymotrypsin cleaves a trans-type alanine-proline peptide bond. When Suc-AAPF-pNA (a peptide substrate) and chymotrypsin are mixed, the trans-type peptide substrate is cleaved and the cis-type peptide substrate remains. The remaining cis-type peptide substrate is converted into a trans form by a cis-trans isomerase and is then cleaved again by chymotrypsin. When the cis-trans isomerase is present, chymotrypsin is able to cleave a larger amount of trans-type peptide substrate within a predetermined period of time, from which the activity of the cis-trans isomerase may be determined. The amount of the cleaved trans-type peptide substrate is measured using absorbance at 390 nm. Cyclophilin has cis-trans isomerase activity, and accelerates the cleavage of trans-type peptide substrate by chymotrypsin. When the stilbene derivatives of the present invention were treated together with cyclophilin, the cleavage of the peptide substrate by chymotrypsin was not observed to accelerate. Thereby, the stilbene derivatives of the invention can be concluded to inhibit the activity of cyclophilin.

SMILES | IC50
COC(=O)c1ccccc1C=Cc1ccc(CC(C)C)cc1 [Compound 129] | 0.02 to 0.2 µM
CCCCCc1ccc(C=Cc2ccccc2C(=O)OC)cc1 [Compound 130] | ≤ 0.02 µM
CCOc1ccc(C(C#N)=Cc2ccccc2OC)cc1 [Compound 16] | 0.2 to 2 µM
CC(C)OC(=O)c1ccccc1C=C(N)c1ccc(CC(C)(C)C)cc1 [Compound 104] | 0.02 to 0.2 µM
N#CC(=Cc1ccccc1CCc1ccccc1)c1ccc([N+](=O)[O-])cc1 [Compound 38] | 0.02 to 0.2 µM
CCCCOC(=O)c1ccccc1C=C(Br)c1ccc(CC(C)(C)C)cc1C [Compound 114] | ≤ 0.02 µM
N#CC(=Cc1ccccc1CCc1cccc(Cl)c1)c1ccc([N+](=O)[O-])cc1 [Compound 47] | 0.02 to 0.2 µM
CC(C)c1ccc(C(C#N)=Cc2ccccc2Cl)cc1 [Compound 4] | 0.2 to 2 µM
CC(C)OC(=O)c1ccccc1C=Cc1ccc(CC(C)(C)C)cc1 [Compound 73] | ≤ 0.02 µM
CCCCOC(=O)c1ccccc1C=C(N)c1ccc(CC2CCCC2)cc1 [Compound 109] | 0.02 to 0.2 µM
CCCOC(=O)c1ccccc1C=C(C)c1ccc(CC(C)(C)C)cc1 [Compound 87] | 0.02 to 0.2 µM
CC(C)(C)CCc1ccccc1C=C(C#N)c1ccc([N+](=O)[O-])cc1 [Compound 43] | 0.02 to 0.2 µM
CCCCOC(=O)c1cc(C)ccc1C=Cc1ccc(CC(C)(C)C)cc1 [Compound 69] | 0.02 to 0.2 µM
COc1ccccc1C=C(C#N)c1ccc(C(=O)C(C)(C)C)cc1 [Compound 14] | 0.02 to 0.2 µM
N#CC(=Cc1ccccc1CC1CCCCC1)c1ccc([N+](=O)[O-])cc1 [Compound 41] | ≤ 0.02 µM
CN(C)CCOc1ccccc1C=C(C#N)c1ccc([N+](=O)[O-])cc1 [Compound 28] | 0.2 to 2 µM
N#CC(=Cc1ccccc1N1CCCCC1)c1ccc([N+](=O)[O-])cc1 [Compound 29] | 0.2 to 2 µM
CC(C)(C)Cc1ccc(C=Cc2ccccc2C(=O)OCC2CCCCC2)cc1 [Compound 74] | ≤ 0.02 µM
CCCCOC(=O)c1ccccc1C=C(N)c1ccc(CC(C)(C)C)cc1 [Compound 98] | 0.02 to 0.2 µM
CC(C)(C)Cc1ccc(C=Cc2ccccc2C(=O)OCc2ccccc2)cc1 [Compound 76] | ≤ 0.02 µM

Same assay, conditions: read-out: Test Example 1: cis-trans isomerase inhibitory activity (IC50) group

SMILES | IC50
CC(C)(C)Cc1ccc(C=Cc2cc(N)ccc2C(=O)O)cc1 [Compound 154] | 0.02 to 0.2 µM
Cc1ccc(C(=O)O)c(C=Cc2ccc(CC(C)(C)C)cc2)c1 [Compound 155] | 0.02 to 0.2 µM
Cc1cccc(C(=O)O)c1C=Cc1ccc(CC(C)(C)C)cc1 [Compound 152] | ≤ 0.02 µM
CCCCOC(=O)c1cccc(C(=O)OCCCC)c1C=Cc1ccc(CC(C)(C)C)cc1 [Compound 149] | 0.02 to 0.2 µM
CCCCOC(=O)c1ccncc1C=Cc1ccc(CC(C)(C)C)cc1 [Compound 147] | 0.02 to 0.2 µM

These compounds were tested on hepatitis C virus (assay: Antiviral activity in HCV replicon cells (Renilla luciferase)). Settings: Hepatitis C virus; HCV replicon cells, 72 hr, Renilla luciferase, relative to DMSO; read-out: Test Example 3: antiviral activity (EC50).
Assay type: cell-based
Description: The antiviral activity of the stilbene derivatives on hepatitis C virus was measured. The replicon cells that stably replicate the hepatitis C virus genome were attached to a culture plate and cultured in a CO2 incubator at 37° C. for 24 hr. The replicon cells cultured for one day were washed with a PBS solution, treated with the compounds of the present invention, and then cultured for 72 hr. The stilbene derivative-treated replicon cells were washed with a cold PBS solution and added with 20 μL of a cell lysis solution so that the cells were lysed in ice for 20 min. 100 μL of a Renilla luciferase substrate was added thereto, after which the luminescence thereof was measured and thus the amount of the hepatitis C virus genome was estimated. The amount of the hepatitis C virus genome in the stilbene derivative-treated replicon cells according to the present invention relative to the amount of the hepatitis C virus genome in dimethylsulfoxide (DMSO)-treated replicon cells is shown.
Compounds 1 to 155 of Tables 1 to 10 may be grouped as follows based on the antiviral activity (EC50) values: […]

SMILES | EC50
COC(=O)c1ccccc1C=Cc1ccc(CC(C)C)cc1 [Compound 129] | 0.5 to 5 µM
CCCCCc1ccc(C=Cc2ccccc2C(=O)OC)cc1 [Compound 130] | < 0.5 µM
CCOc1ccc(C(C#N)=Cc2ccccc2OC)cc1 [Compound 16] | 5 to 50 µM
CC(C)OC(=O)c1ccccc1C=C(N)c1ccc(CC(C)(C)C)cc1 [Compound 104] | 0.5 to 5 µM
N#CC(=Cc1ccccc1CCc1ccccc1)c1ccc([N+](=O)[O-])cc1 [Compound 38] | 0.5 to 5 µM
CCCCOC(=O)c1ccccc1C=C(Br)c1ccc(CC(C)(C)C)cc1C [Compound 114] | < 0.5 µM
N#CC(=Cc1ccccc1CCc1cccc(Cl)c1)c1ccc([N+](=O)[O-])cc1 [Compound 47] | 0.5 to 5 µM
CC(C)c1ccc(C(C#N)=Cc2ccccc2Cl)cc1 [Compound 4] | 5 to 50 µM
CC(C)OC(=O)c1ccccc1C=Cc1ccc(CC(C)(C)C)cc1 [Compound 73] | < 0.5 µM
CCCCOC(=O)c1ccccc1C=C(N)c1ccc(CC2CCCC2)cc1 [Compound 109] | 0.5 to 5 µM
CCCOC(=O)c1ccccc1C=C(C)c1ccc(CC(C)(C)C)cc1 [Compound 87] | 0.5 to 5 µM
CC(C)(C)CCc1ccccc1C=C(C#N)c1ccc([N+](=O)[O-])cc1 [Compound 43] | 0.5 to 5 µM
CCCCOC(=O)c1cc(C)ccc1C=Cc1ccc(CC(C)(C)C)cc1 [Compound 69] | 0.5 to 5 µM
COc1ccccc1C=C(C#N)c1ccc(C(=O)C(C)(C)C)cc1 [Compound 14] | 0.5 to 5 µM
N#CC(=Cc1ccccc1CC1CCCCC1)c1ccc([N+](=O)[O-])cc1 [Compound 41] | < 0.5 µM
CN(C)CCOc1ccccc1C=C(C#N)c1ccc([N+](=O)[O-])cc1 [Compound 28] | 5 to 50 µM
N#CC(=Cc1ccccc1N1CCCCC1)c1ccc([N+](=O)[O-])cc1 [Compound 29] | 5 to 50 µM
CC(C)(C)Cc1ccc(C=Cc2ccccc2C(=O)OCC2CCCCC2)cc1 [Compound 74] | < 0.5 µM
CCCCOC(=O)c1ccccc1C=C(N)c1ccc(CC(C)(C)C)cc1 [Compound 98] | 0.5 to 5 µM
CC(C)(C)Cc1ccc(C=Cc2ccccc2C(=O)OCc2ccccc2)cc1 [Compound 76] | < 0.5 µM

Same assay, conditions: Hepatitis C virus; HCV replicon cells; read-out: Test Example 3: antiviral activity (EC50) group

SMILES | EC50
CC(C)(C)Cc1ccc(C=Cc2cc(N)ccc2C(=O)O)cc1 [Compound 154] | 0.5 to 5 µM
Cc1ccc(C(=O)O)c(C=Cc2ccc(CC(C)(C)C)cc2)c1 [Compound 155] | 0.5 to 5 µM
Cc1cccc(C(=O)O)c1C=Cc1ccc(CC(C)(C)C)cc1 [Compound 152] | < 0.5 µM
CCCCOC(=O)c1cccc(C(=O)OCCCC)c1C=Cc1ccc(CC(C)(C)C)cc1 [Compound 149] | 0.5 to 5 µM
CCCCOC(=O)c1ccncc1C=Cc1ccc(CC(C)(C)C)cc1 [Compound 147] | 0.5 to 5 µM
